Data as given in US9682938B2, “Pyrazolone derivatives as nitroxyl donors” (Cardioxyl Pharmaceuticals, Inc., priority 2014, dated 2017).
Where “and” joins values, the source holds several entries; their conditions need not be identical. Equal entries are not always repeated.

What was measured:
normal beagle dogs = test: Pharmacodynamic activity: systolic blood pressure decrease in telemetered dogs after oral dose; assay type: in vivo, dog; conditions: beagle dogs (n=3), single oral dose 30 mg/kg in PEG300, first 2 hr post-dose relative to baseline SBP
Experimental: The effect of certain compounds from Table 1 on blood pressure in freely moving telemetered normal beagle dogs (n=3) after single oral doses was evaluated. The animals were surgically implanted with a pressure transducer equipped telemetry transmitter. The transmitter assembly was secured internally and a fluid-filled catheter was placed into the abdominal aorta to allow for collection of cardiovascular data. To evaluate cardiovascular effects, 3 dogs were given single oral doses of a compound from Table 1 (100% PEG300 in gelatin capsules) at a concentration of 100 mg/mL and at doses of 30 mg/kg. Systemic blood pressure and heart rate were evaluated continuously for 2 hr before and for 24 hr after dosing (results not shown). To compare the pharmacodynamic activity for all tested compounds, the mean systolic blood pressure (SBP) decrease during the first 2 hr post-dose was determined relative to the baseline SBP (30-120 min pre-dose) (Table 6).

[1] = Nitroxyl production via 1H NMR protocol using TXPTS (NMR half-lives); assay type: physicochemical; conditions: phosphate buffer containing TXPTS (HNO trap); pH 7.4, 0.25 M phosphate buffer, 5 mM TXPTS, 1 mM compound, 37° C., spectra over 8 hours; read-out: NMR-T1/2
Experimental: The ^1H NMR procedure used was based on an HPLC protocol developed by S. Bruce King and coworkers (Reisz et al., Org. Lett. 11:2719-2721 (2009), Reisz et al., J. Am. Chem. Soc. 133:11675-11685 (2011) and Guthrie et al., J. Org. Chem. 80:1338-1348 (2015)). According to this procedure, the amount of HNO released from a pyrazolone derivative compound was determined by reacting the compound with the triarylphosphine TXPTS and monitoring the resulting aza-ylide formation.
The procedure for determining the amount of HNO released from certain compounds from Table 1 was as follows.
Tris(4,6-dimethyl-3-sulfanatophenyl)phosphine trisodium salt (TXPTS) was of reagent grade and used without further purification. Synthetic TXPTS aza-ylide was obtained through the amidation of TXPTS using hydroxylamine O-sulfonic acid in water (Armstrong et al., Org. Lett. 7:713-716 (2005)). All other materials were of reagent grade and used without further purification.
All ^1H NMR spectra were obtained in an adjusted-to pH 7.4 solution containing 0.25 M phosphate buffer, 0.2 mM of the metal chelator diethylenetriaminepentaacetic acid (“DTPAC”), and 10% D2O on a Bruker Avance 250 MHz FT-NMR spectrometer using a 1 second presaturation pulse to suppress the water signal. To a nitrogen-purged NMR solution (1.00 mL) containing TXPTS (3.3 mg, 5 mM) was added a pyrazolone derivative compound (10 μL of 100 mM in methanol-d4) to give 1 mM as the initial concentration of the pyrazolone derivative compound. The solution was briefly mixed, about 0.5 mL was transferred to a nitrogen-purged NMR tube and an initial ^1H NMR spectrum (time=0) was obtained. Thereafter, the sample was internally incubated at 37° C. and ^1H NMR spectra were collected at regular intervals for 8 hours.
The HNO donating pyrazolone derivative compound, by-product (e.g., (III) in Scheme 1), and TXPTS aza-ylide concentrations, determined from NMR spectra taken over 8 hours, were plotted as a function of time, and each data set was fitted to a single exponential function. The NMR half-lives for the disappearance of the HNO donating pyrazolone derivative compound and the appearance of by-product and TXPTS aza-ylide were determined from the respective plots. […] A control compound, compound 7 disclosed in WO 2013/059194, was also evaluated.

[2] = Solid-state stability at 40° C. and 75% RH (purity by HPLC); assay type: physicochemical; conditions: solid powder; for Solid-state stability, purity by HPLC, 0 Months: 0 Months (initial); for Solid-state stability, purity by HPLC, 1 Month: in % (unit assumed)
Experimental: Solid, powdered samples of certain compounds from Table 1 were sealed in double polyethylene bags and stored at 40° C., 75% relative humidity (“RH”) for up to 3 months. A control compound, compound 7 disclosed in WO 2013/059194, was also tested. Initially and after 1 month, 2 months, and 3 months of storage, the samples were analyzed for purity, as determined by high performance liquid chromatography (“HPLC”). Additionally, certain compounds from Table 1 were admixed at a level of 50% by weight with one of the following excipients before stability testing: lactose, microcrystalline cellulose, or croscarmellose sodium. The resulting admixtures were also stored as described above then analyzed for purity of the pyrazolone derivative component, as determined by HPLC. The HPLC apparatus comprised a quaternary or binary pump, an auto sampler, a thermostated column compartment, and a UV/visible detector. The HPLC measurement conditions were as follows: • Column: Zorbax Eclipse XDB-C18, 2.1×50 mm, 3.5 μm (Agilent Technologies, Santa Clara, Calif.) • Injection Volume: 2 μL • Detection Wavelength: 220 nm • Mobile Phase A: 0.1% by volume formic acid (“FA”) in water • Mobile Phase B: 0.1% by volume FA in acetonitrile • Diluent: About 0.2 mg sample/mL acetonitrile • Gradient:
• Flow Rate: 0.8 mL/min • Column Temperature: 25° C.

[3] = In vitro plasma stability, human plasma; assay type: in vitro ADME; conditions: male, pH 7.4, 5 μM, 37° C., sampling 0-360 minutes, read-out: T1/2 Human
How it was run: (§1)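 Pooled plasma at pH 7.4 with sodium heparin or citrate anticoagulant; compound at 5 μM, 37° C with shaking, triplicate samples at 0–360 min. Quenched in acetonitrile/1% formic acid with internal standard; LC-MS/MS peak-area ratios without standard curve; T1/2 from percent remaining.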

[4] = In vitro plasma stability, dog plasma; assay type: in vitro ADME; conditions: male, pH 7.4, 5 μM, 37° C., sampling 0-360 minutes, read-out: T1/2 Dog
How it was run: as §1

[5] = In vitro plasma stability, rat plasma; assay type: in vitro ADME; conditions: male, pH 7.4, 5 μM, 37° C., sampling 0-360 minutes, read-out: T1/2 Rat
How it was run: as §1

SMILES	half-life at 1 mM [1] [min]	Solid-state stability, purity by HPLC, 0 Months [2] [%]	Solid-state stability, purity by HPLC, 1 Month [2]	half-life at 5 μM [3] [min]	half-life at 5 μM [4] [min]	Solid-state stability, purity by HPLC, 2 Months [2] [%]	Solid-state stability, purity by HPLC, 3 Months [2] [%]	half-life at 5 μM [5] [min]	Mean SBP decrease (normal beagle dogs) [mmHg]
CC1=NN(C)C(=O)C1(NO)c1ccccc1 (centres unmarked) [Compound 6, 4-(hydroxyamino)-2,5-dimethyl-4-phenyl-2,4-dihydro-3H-pyrazol-3-one]	34	99.8	<10	38	12	–	–	–	22
CN1N=C(c2ccc(S(C)(=O)=O)cc2)C(C)(NO)C1=O (centres unmarked) [Compound 14, 4-(hydroxyamino)-2,4-dimethyl-5-(4-(methylsulfonyl)phenyl)-2,4-dihydro-3H-pyrazol-3-one]	379	99.3	97.0 and 61.0	49	66	68	–	40	13
CN1N=C(c2ccc(Cl)cc2)C(C)(NO)C1=O (centres unmarked) [Compound 1, 5-(4-chlorophenyl)-4-(hydroxyamino)-2,4-dimethyl-2,4-dihydro-3H-pyrazol-3-one]	780	100	99.2	84	148	99.8	99.8	80	3
CN1N=C(c2ccc(S(C)(=N)=O)cc2)C(C)(NO)C1=O (centres unmarked) [Compound 75, 4-(Hydroxyamino)-3-{4-[imino(methyl)oxo-λ^6-sulfanyl]phenyl}-1,4-dimethyl-4,5-dihydro-1H-pyrazol-5-one]	–	–	–	49	47	–	–	113	12
CN1N=C(c2ccc(C(F)(F)F)cc2)C(C)(NO)C1=O (centres unmarked) [Compound 4, 4-(hydroxyamino)-2,4-dimethyl-5-(4-(trifluoromethyl)phenyl)-2,4-dihydro-3H-pyrazol-3-one]	–	–	–	31	69	–	–	38	6
CN1N=C(c2ccc(S(=O)(=O)C(F)(F)F)cc2)C(C)(NO)C1=O (centres unmarked) [Compound 34, 4-(hydroxyamino)-2,4-dimethyl-5-(4-((trifluoromethyl)sulfonyl)phenyl)-2,4-dihydro-3H-pyrazol-3-one]	–	–	–	36	25	–	–	28	18

The next lines start with results.

half-life at 1 mM [1] [min]	Solid-state stability, purity by HPLC, 0 Months [2] [%]	Solid-state stability, purity by HPLC, 1 Month [2]	half-life at 5 μM [3] [min]	half-life at 5 μM [4] [min]	Solid-state stability, purity by HPLC, 2 Months [2] [%]	Solid-state stability, purity by HPLC, 3 Months [2] [%]	half-life at 5 μM [5] [min]	SMILES	Mean SBP decrease (normal beagle dogs) [mmHg]
50	91.2	<10	52	72	< 10	< 10	61	CN1N=C(c2ccccc2Cl)C(C)(NO)C1=O (centres unmarked) [Compound 2, 5-(2-chlorophenyl)-4-(hydroxyamino)-2,4-dimethyl-2,4-ddihydro-3H-pyrazol-3-one]	2
237	–	–	32	28	–	–	37	CN1N=C(c2ccccc2F)C(C)(NO)C1=O (centres unmarked) [Compound 3, 5-(2-fluorophenyl)-4-(hydroxyamino)-2,4-dimethyl-2,4-dihydro-3H-pyrazol-3-one]	28
1000	98.3	<10	80	100	–	–	67	CN1N=C(c2ccccc2)C(C)(NO)C1=O (centres unmarked) [Compound 15, 4-(hydroxyamino)-2,4-dimethyl-5-phenyl-2,4-dihydro-3H-pyrazol-3-one]	31
